# Data: patent EP2571872B1, “COMPOUNDS” (Treherne, Johnathan Mark, priority 2010, dated 2011)
# Experiments:
# SH SY5Y cells = experiment: Cell viability assay for amyloid toxicity using MTT reduction; format: cell-based; details: protection of SH SY5Y cells from a toxic insult of 10µM Aβ(1-42), MTT reduction as measure of cell viability, 24 h incubation
# Method: Aβ(1-42) was prepared for amyloid aggregation and toxicity assays by dissolving Aβ(1-42) HCl salt in hexafluoroisopropanol (HFIP), with brief sonication and vortexing. This solution of the Aβ(1-42) peptide in HFIP was stored at 4°C @ 2mM. When required, an aliquot of this stock solution was freeze-dried and dissolved in DMSO to 200 times the required final assay concentration (e.g. 2mM for a final assay concentration of 10 µM).
# A 20mM stock solution of each test compound was prepared in DMSO, and aliquots of these solutions were used to prepare further stock solutions of each test compound in DMSO, ranging in concentration from 3µM up to 10mM. These stock solutions were prepared for use as and when required and stored at -20°C (maximum of 3 freeze-thaw cycles). The 20mM parent stock solutions were stored frozen at -20 °C.
# The activity of compounds in protecting SH SY5Y cells from a toxic insult of 10µM Aβ(1-42) was assessed by using inhibition of MTT reduction as a measure of cell viability. An aliquot (3µl) of test compound [various concentrations] in DMSO is added to 294 µl of Opti-Mem (containing 2% FBS, 1% Pen/Strep, 1% L-Gln) {daughter plate}. The well is mixed thoroughly. Then an aliquot (3 µl) of Aβ(1-42) [2mM] is added to the daughter plate wells and again mixed thoroughly. 50 µl is then aspirated and dispensed into wells containing 50 µl media + SH SY5Ycells (cells are also plated in Opti-Mem, at ∼ 30,000 cells/well/50 µl). […]
# Cell plates are incubated for 24 h and then the MTT assay (Shearman, 1999), is performed. […] The plate was shaken and the absorbance was recorded at both 570 nm and 650 nm. ΔA values were calculated by subtracting absorbance at 650 nm from absorbance at 570 nm, to reduce non-specific background absorbance. ΔA values from equivalent experiments were averaged and % cell viability was determined as follows: % cell viability = ([ΔA(sample)-ΔA(deal cell control)] x 100%)/([ΔA(live cell control)-ΔA(dead cell control)]) [formula] • Live cell controls: 1% DMSO in Opti-Mem • Dead cell controls: 0.1% Triton X-100 added to cells […]
# [1] = tested on: rat hippocampal brain slices; experiment: Long-term potentiation (LTP) in hippocampal brain slices, Aβ(1-42)-induced depression of LTP; details: compound at 3µM, Schaffer collateral stimulation
# Method: Long-term potentiation (LTP) is a natural, prolonged electrophysiological response associated with the neurological processes of learning and short-term memory, which are affected in Alzheimer's disease. […] LTP was measured using stimulation of Schaffer collaterals in rat hippocampal brain slices, as described below.
# 20µL of 5mM Example 1 in DMSO was added to the stock Aβ(1-42) (1mL) and agitated at 37°C for 24hr. On the experimental day the mixture is diluted to 33mL in aCSF (32mL) immediately prior to use. The final concentration of Example 1 was 3µM. The final concentration of Aβ(1-42) was 1µM and the final concentration of DMSO was 0.06% […]
# Schaffer collaterals were stimulated (3-22V, 0.1ms pulse width, 0.03Hz) with a concentric bipolar electrode and the evoked extracellular field excitatory postsynaptic potentials (fEPSPs) were recorded via an Axoclamp 2A amplifier from the stratum radiatum of the CA1 region of the hippocampus with a glass capillary microelectrode filled with 4M NaCl (resistance 2-4 MΩ). […] A 10 minute stable baseline period (control) was recorded followed by administration of test compound 10 minutes prior to high frequency stimulation (1sec 100Hz train) applied three times at 10 minute intervals with an 80 minute wash of test compound after the final high frequency stimulation protocol. […]
Compound,IC50 (SH SY5Y cells; Homo sapiens),toxic effect of 1µM Aβ(1-42) on LTP [1],IC50 (SH SY5Y cells)
"Fc1cccc2c1OCCN2c1ncc(Oc2cccc(N3CCOCC3)c2)cn1 [Example 1, 8-Fluoro-4-[5-(3-morpholinophenoxy)pyrimidin-2-yl]-3,4-dihydro-2H-benzo[1,4]oxazine]",23 µM,effectively blocked,–
"Fc1ccc2c(c1)N(c1ncc(Oc3cccc(N4CCOCC4)c3)cn1)CCO2 [Example 2, 6-Fluoro-4-[5-(3-morpholinophenoxy)pyrimidin-2-yl]-3,4-dihydro-2H-benzo[1,4]oxazine]",26 µM,–,–
"Oc1cccc(Nc2ccc(Nc3cccc(O)c3)nn2)c1 [RS-0406, reference compound]",–,–,35 µM
